One may read the MIC as the lowest concentration that inhibits growth of the organism. Higher therefore signals weaker potency.

≈ marks a conversion by molar mass, not a printed value.

The subject of this assay is Mycobacterium tuberculosis (M. tuberculosis H37Rv). In words: Antimicrobial assay (agar dilution method), minimal inhibitory concentration. As to conditions: 336 h, 7H11 agar medium, approximately 10^6 CFU/ml, 5 μl inoculated, 37° C. for 14 days. Type of assay: cell-based.

Consider `C[C@]1(CN2CCN(c3ccc(OC(F)(F)F)cc3)CC2)Cn2cc([N+](=O)[O-])nc2O1` [Example 397, (S)-2-[4-(4-trifluoromethoxyphenyl)-piperazin-1-ylmethyl]-2-methyl-6-nitro-2,3-dihydroimidazo[2,1-b]oxazole], for which the minimal inhibitory concentration (MIC) is 0.024 µg/mL (≈ 0.0562 µM).

Values taken from patent publication US7262212B2, “2,3-dihydro-6-nitroimidazo[2,1-b]oxazoles” (Otsuka Pharmaceutical Co., Ltd., priority 2002, dated 2007).
